Measurements: US6211439A, “Herbicide resistance in plants” (MGI Pharma, Inc, priority 1995, dated 2001)

Tests used:
XA17 seedlings = assay: Seedling assay, progeny of XA17 regenerated plant x B73 (heterozygous); assay type: in vivo, maize
Text: An XA17 regenerated plant with a normal ear was pollinated with pollen obtained from a herbicide sensitive inbred B73 plant grown from seed. Seeds were obtained and harvested approximately forty days post pollination.
(§1) Twenty control seeds and ten XA17 seeds were surface sterilized with 2.6% sodium hypochlorite for twenty minutes and then washed with sterile distilled water. The seed was imbibed overnight in sterile water containing a small quantity of the fungicide, captan (N-trichloromethylthio-4-cyclohexene-1,2-dicarboximide). The mature embryos were then excised from the seed and plated scutellum side down on solid MS media without 2,4-D. Ten control seeds were plated on media containing no 214 and ten were plated in the presence of 6×10^-8M 214 which had been incorporated into the medium after autoclaving but before gelling. All ten XA17 seeds were plated in the presence of 6×10^-8 M 214. Seedlings were evaluated seven days after plating.

[1] = system: XA17 seedlings homozygous for the herbicide resistance trait; assay: Seedling assay, XA17 seedlings homozygous for the resistance trait; assay type: in vivo, maize
Description: as §1
XA17 seeds homozygous for the resistance trait were obtained as described in Section 6.4.6. […] Assays were conducted as described in Section 6.4.5.

maize seedlings = assay: Germination and seedling growth from excised mature maize embryos; assay type: in vivo; settings: concentration in the media, shoot growth after seven days
Description: The herbicidal effects of 997 on maize seedlings were determined by evaluating germination and seedling growth from excised, mature maize embryos (Green, 1974, Crop Sci. 14: 54-58). Seeds were sterilized for 10 minutes in 0.5% hypochlorite and then imbibed for 24 hours in sterile, distilled water. Mature embryos were aseptically excised and plated on solid MS media […] containing various concentrations of 997 and no 2,4-D. Embryos were placed with their shoot axis away from the media. Shoot growth was quantitated after seven days.

Suspension culture cells = assay: Protein synthesis: incorporation of radiolabeled amino acids into TCA-precipitable cell components; assay type: cell-based, maize; settings: Zea mays; 1×10^-5 M 997; cells at different post-subculture intervals; cell fresh weight basis
Description: Suspension culture cells were preincubated for 48 hours in the presence or absence of 1×10^-5 M 997 and then exposed for 12 hours to 75 !Ci of either ^35 S-methionine (1210 Ci/mmol, New England Nuclear, Boston, Mass.) or ^3 H-DL-leucine (55 Ci/mmol, ICN Pharmaceuticals Inc. -K and K Laboratories, Plainview, N.Y.) per 0.1 ml of cells at a cell density of 10% volume cells/volume suspension. Cells were then centrifuged 300×g, washed with cold MS culture media, and ground with a cold mortar and pestle in the presence of one volume of 6 M urea. The resulting extract was centrifuged at 12,800×g for 5 minutes. The pellet was then reextracted and, following centrifugation, the extracts were combined. Protein was precipitated by the addition of 10% w/v trichloroacetic acid (TCA). Protein was removed by centrifugation and resolubilized in 6 M urea. Incorporation of radiolabel into protein was determined by scintillation counting.

[2] = system: AHAS activity from line QJ22; assay: AHAS activity assay, line QJ22; assay type: biochemical, maize; settings: 3×10^-6 to 3×10^-4 M 997
Description: (§2) Assays were conducted as a modification of the procedure of Smith et al. (1979, Molec. Gen. Genet. 169: 299-314). Plant cell culture material was ground with sand in a cold mortar and pestle in an equal quantity (w/v) of cell disruption media containing 0.05 M potassium phosphate (pH 7.0), 0.1 mM MgSO4, and 0.5 mM dithiothreitol. The preparation was centrifuged at 11,000×g for 20 minutes and the supernatant assayed for AHAS activity. Assays were conducted in 1 ml volumes containing 0.05 M potassium phosphate (pH 8.0), 40 mM pyruvate, 5 mM MgCl2, 0.1 mM thiamine pyrophosphate, 0.2 ml cell extract, and various concentrations of the herbicide of interest. The reaction mixtures were incubated at 30° C. for 75 minutes and the reaction terminated with the addition of 0.1 ml of 50% (v/v) H2 SO4. Following further incubation at 40° C. for 20 minutes, the acetoin formed from acetolactate by acidification was quantitated using the method of Westerfield (1945, J. Biol. Chem. 161: 495). To 0.2 ml of reaction mixture, 0.8 ml of water, 0.5 ml of 0.5% (w/v) creatine, and 0.5 ml of 5% (w/v) naphthol in 10% (w/v) NaOH was added. After mixing, solutions were incubated at room temperature for one hour. The development of pink color was quantitated by measuring light absorbance at 530 nm. […]

[3] = system: AHAS activity from line UV18; assay: AHAS activity assay, line UV18; assay type: biochemical, maize; settings: 3×10^-6 to 3×10^-4 M 997
Description: as §2

[4] = 6×10^-8 M 214, seven days after plating

Compound	root length of resistant seedlings (XA17 seedlings; [4])	root length of sensitive seedlings (XA17 seedlings; [4])	level of tolerance on an herbicide concentration basis (XA17 seedlings; seedlings heterozygous for the tolerance trait)	shoot growth inhibition at the highest concentration tested ([1]; 3×10^-6 M, seedlings homozygous for the resistance trait)	resistance of XA17 homozygous seedlings ([1]; vs control seedlings)	herbicide concentration giving 50% growth inhibition (maize seedlings)	inhibition at 10 µM (Suspension culture cells) [%]	tolerance of AHAS activity vs AHAS from control cultures [2]	tolerance of AHAS activity vs AHAS from control cultures [3]
CC(C)C1(C)NC(c2nc3ccccc3cc2C(=O)O)=NC1=O (stereo not drawn) [compound 214, 2-(5-isopropyl-5-methyl-4-oxo-2-imidazolin-2-yl)3-quinolinecarboxylic acid]	6-7 cm	0-1 cm	at least 5 fold	no inhibition	at least 100 fold	–	–	–	–
CC(C)C1(C)NC(c2ncccc2C(=O)O)=NC1=O (stereo not drawn) [compound 997, 2-(5-isopropyl-5-methyl-4-oxo-2-imidazolin-2-yl)nicotinic acid]	–	–	–	–	–	1 to 3×10^-8 M	50 to 77	more tolerant	more tolerant
